These results are taken from US10472358B2, “1H-pyrrolo[2,3-c]pyridin-7(6H)-ones and pyrazolo[3,4-c]pyridin-7(6H)-ones as inhibitors of BET proteins” (Incyte Corporation, priority 2014, dated 2019).

The first experiment relates to KMS.12.BM cells. Kind of experiment: KMS.12.BM cell viability assay (Cell Titer-GLO, ATP quantitation). It counts as cell-based. As to conditions: KMS-12-BM, 72 h; human myeloma cells, 3 days, concentration required for 50% cell death. The essentials: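 KMS.12.BM human myeloma cells (5000/well, RPMI with 10% FBS) were exposed to a compound concentration range for 3 days. Viable cells were measured by CellTiter-Glo ATP luminescence. IC50 is the concentration giving 50% cell death relative to untreated cells.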
Take `COc1cc(-c2cn(C)c(=O)c3[nH]ccc23)c2c(c1)N(C)CC(C(C)C)O2` (stereo not drawn) [Example 22, 4-(2-isopropyl-6-methoxy-4-methyl-3,4-dihydro-2H-1,4-benzoxazin-8-yl)-6-methyl-1,6-dihydro-7H-pyrrolo[2,3-c]pyridin-7-one]: the IC50 lay in the range of 1000 to 10000 nM.

`CC(C)C1Oc2c(cc(C#N)cc2-c2cn(C)c(=O)c3[nH]ccc23)NC1=O` (stereo not drawn) [Example 17, 2-isopropyl-8-(6-methyl-7-oxo-6,7-dihydro-1H-pyrrolo[2,3-c]pyridin-4-yl)-3-oxo-3,4-dihydro-2H-1,4-benzoxazine-6-carbonitrile] came in with an IC50 of at most 1000 nM.

`COc1cc2c(c(-c3cn(C)c(=O)c4[nH]ccc34)c1)OC(C1CC1)C(=O)N2` (stereo not drawn) [Example 23, 2-cyclopropyl-6-methoxy-8-(6-methyl-7-oxo-6,7-dihydro-1H-pyrrolo[2,3-c]pyridin-4-yl)-2H-1,4-benzoxazin-3(4H)-one] returned an IC50 of 1000 to 10000 nM.

Regarding `CC(C)C1Oc2c(cc(S(C)(=O)=O)cc2-c2cn(C)c(=O)c3[nH]ccc23)NC1=O` (stereo not drawn) [Example 44, 2-isopropyl-8-(6-methyl-7-oxo-6,7-dihydro-1H-pyrrolo[2,3-c]pyridin-4-yl)-6-(methylsulfonyl)-2H-1,4-benzoxazin-3(4H)-one], the IC50 is at most 1000 nM.

`COc1cc2c(c(-c3cn(C)c(=O)c4[nH]ccc34)c1)OC(C1CCCC1)C(=O)N2` (stereo not drawn) [Example 35, 2-cyclopentyl-6-methoxy-8-(6-methyl-7-oxo-6,7-dihydro-1H-pyrrolo[2,3-c]pyridin-4-yl)-2H-1,4-benzoxazin-3(4H)-one] had an IC50 of at most 1000 nM.

The compound `CC(C)C1Oc2c(cc(S(C)(=O)=O)cc2-c2cn(C)c(=O)c3[nH]ncc23)NC1=O` (stereo not drawn) [Example 84, 2-isopropyl-8-(6-methyl-7-oxo-6,7-dihydro-1H-pyrazolo[3,4-c]pyridin-4-yl)-6-(methylsulfonyl)-2H-1,4-benzoxazin-3(4H)-one] returned an IC50 of at most 1000 nM.

The compound `CC(O)c1cc(-c2cn(C)c(=O)c3[nH]ccc23)c2c(c1)N(C)C(=O)C(C)(C)O2` (single isomer, unassigned) [Example 83A, 6-(1-hydroxyethyl)-2,2,4-trimethyl-8-(6-methyl-7-oxo-6,7-dihydro-1H-pyrrolo[2,3-c]pyridin-4-yl)-2H-1,4-benzoxazin-3(4H)-one] registered an IC50 of at most 1000 nM.

For `CN1C(=O)C(C)(C)Oc2c(-c3cn(C)c(=O)c4[nH]ccc34)cc(S(=O)(=O)N(C)C)cc21` [Example 69, N,N,2,2,4-pentamethyl-8-(6-methyl-7-oxo-6,7-dihydro-1H-pyrrolo[2,3-c]pyridin-4-yl)-3-oxo-3,4-dihydro-2H-1,4-benzoxazine-6-sulfonamide], the IC50 was at most 1000 nM.

Turning to `CC(C)C1Oc2c(cccc2-c2cn(C)c(=O)c3[nH]ccc23)NC1=O` (stereo not drawn) [Example 2, 2-isopropyl-8-(6-methyl-7-oxo-6,7-dihydro-1H-pyrrolo[2,3-c]pyridin-4-yl)-2H-1,4-benzoxazin-3(4H)-one], the IC50 was at most 1000 nM.

With `Cn1cc(-c2cccc3c2OC(C2CCOCC2)C(=O)N3)c2cc[nH]c2c1=O` (stereo not drawn) [Example 7, 8-(6-methyl-7-oxo-6,7-dihydro-1H-pyrrolo[2,3-c]pyridin-4-yl)-2-(tetrahydro-2H-pyran-4-yl)-2H-1,4-benzoxazin-3(4H)-one], the IC50 was at most 1000 nM.

In the case of `Cn1cc(-c2cc(S(=O)(=O)N3CCCCC3)cc3c2OC(C)(C)C(=O)N3)c2cc[nH]c2c1=O` [Example 72, 2,2-dimethyl-8-(6-methyl-7-oxo-6,7-dihydro-1H-pyrrolo[2,3-c]pyridin-4-yl)-6-(piperidin-1-ylsulfonyl)-2H-1,4-benzoxazin-3(4H)-one], the IC50 was at most 1000 nM.

Staying with this experiment, now noted: human myeloma cells, 3 days, concentration required for 50% cell death.
The compound `CC(C)C1Oc2c(cc(S(C)(=O)=O)cc2-c2cn(C)c(=O)c3[nH]ccc23)NC1=O` (single isomer, unassigned) [Example 44B, 2-isopropyl-8-(6-methyl-7-oxo-6,7-dihydro-1H-pyrrolo[2,3-c]pyridin-4-yl)-6-(methylsulfonyl)-2H-1,4-benzoxazin-3(4H)-one] came in with a 50% inhibitory concentration (IC50) of at most 1000 nM.

In general, IC50 refers to the concentration needed to halve the response being measured. High values mean weaker potency in that assay, low ones greater potency in that assay.
